Assays:
[1] = Half life in human liver microsomes at 0.1 uM in presence or absence of NADPH by LC-MS/MS analysis; assay type: ADME, Microsome
[2] = Half life in rat liver microsomes at 0.1 uM in presence or absence of NADPH by LC-MS/MS analysis; assay type: ADME, Microsome
[3] = Half life in mouse liver microsomes at 0.1 uM in presence or absence of NADPH by LC-MS/MS analysis; assay type: ADME, Microsome
[4] = Blood clearance in Balb/c mouse at 3 mg/kg, iv measured upto 24 hrs by LC-MS/MS analysis; assay type: ADME, organism-based; conditions: whole blood
[5] = Intrinsic clearance in Balb/c mouse at 3 mg/kg, iv measured upto 24 hrs by LC-MS/MS analysis; assay type: ADME, organism-based; conditions: in vivo
[6] = Unbound AUC in Balb/c mouse at 20 mg/kg, po measured upto 24 hrs by LC-MS/MS analysis; assay type: ADME, organism-based; conditions: in vivo
[7] = Oral bioavailability in Balb/c mouse at 10 mg/kg measured upto 24 hrs by LC-MS/MS analysis; assay type: ADME, organism-based; conditions: in vivo
[8] = Unbound average drug concentration in Balb/c mouse at 20 mg/kg, po measured upto 24 hrs by LC-MS/MS analysis; assay type: ADME, organism-based; conditions: in vivo
[9] = AUC (0 to infinity) in Balb/c mouse at 3 mg/kg, iv measured upto 24 hrs by LC-MS/MS analysis; assay type: ADME, organism-based; set-up: route intravenous, dose 3 mg/kg, time <=24; conditions: in vivo
[10] = Volume of distribution in Balb/c mouse at 3 mg/kg, iv measured upto 24 hrs by LC-MS/MS analysis; assay type: ADME, organism-based; conditions: in vivo
[11] = Half life in Balb/c mouse at 3 mg/kg, iv measured upto 24 hrs by LC-MS/MS analysis; assay type: ADME, organism-based; conditions: in vivo

SMILES | half-life at 0.1 µM [1] [min] | half-life at 0.1 µM [2] [min] | half-life at 0.1 µM [3] [min] | further results
O=C(N1CC(CNc2ccc(F)cc2)C2(C1)CN(c1cc(F)cc(F)c1)C2)C(F)(F)c1ccc(O)cc1 (racemic) | 23 | 11 | 12 | –
CS(=O)(=O)c1ccc(-c2cnc(N)c(-c3ccc(C(F)(F)F)nc3)c2)cc1 [MMV-048] | – | – | – | clearance [4]: 3 mL/min/kg; CL [5]: 19 mL/min/kg; fAUC [6]: 4452 µmol·min/L; bioavailability [7]: > 100%; f(Cave) [8]: 3092 nM
O=C(Cc1ccc(O)c(C(F)(F)F)c1)N1CC(CNc2ccc(F)cc2)C2(C1)CN(c1cc(F)cc(F)c1)C2 (racemic) | 15 | 16 | 24 | –
N[C@H](C(=O)N1CC(CNc2ccc(F)cc2)C2(C1)CN(c1cc(F)cc(F)c1)C2)c1ccc(O)cc1 (mixture of isomers; form 1) | 150 | 150 | 150 | clearance [4]: 33.7 mL/min/kg; CL [5]: 2155 mL/min/kg; fAUC [6]: 3 µmol·min/L; bioavailability [7]: < 1%; AUC(0-inf) [9]: 3 µM·h; Vd [10]: 23.5 L/kg; half-life [11]: 480 min; f(Cave) [8]: 2 nM
C[C@@H](C(=O)N1CC(CNc2ccc(F)cc2)C2(C1)CN(c1cc(F)cc(F)c1)C2)c1ccc(O)cc1 (mixture of isomers) | 6 | 6 | 7 | –
O=C(Cc1ccc(O)nc1)N1CC(CNc2ccc(F)cc2)C2(C1)CN(c1cc(F)cc(F)c1)C2 (racemic) | 21 | 52 | 17 | –
O=C(Cc1ccc(O)cc1)N1CC(CNc2ccccc2)C2(C1)CN(c1ccc(F)cc1)C2 (stereo not drawn) | – | – | – | clearance [4]: 63 mL/min/kg; CL [5]: 5042 mL/min/kg; fAUC [6]: 3 µmol·min/L; bioavailability [7]: 10%; AUC(0-inf) [9]: 1.82 µM·h; Vd [10]: 22 L/kg; half-life [11]: 240 min; f(Cave) [8]: 2 nM
O=C(Cc1ccc(O)c(F)c1)N1CC(CNc2ccc(F)cc2)C2(C1)CN(c1ccc(F)cc1)C2 (racemic) | 17 | 14 | 13 | –
NC(=O)c1cc(CC(=O)N2CC(CNc3ccc(F)cc3)C3(C2)CN(c2cc(F)cc(F)c2)C3)ccc1O (racemic) | 11 | 8 | 21 | –
N[C@H](Cc1ccc(O)cc1)C(=O)N1CC(CNc2ccc(F)cc2)C2(C1)CN(c1cc(F)cc(F)c1)C2 (mixture of isomers) | 34 | 24 | 20 | –
O=C(N1CC(CNc2ccc(F)cc2)C2(C1)CN(c1cc(F)cc(F)c1)C2)C(F)(F)c1ccc(O)c(C(F)(F)F)c1 (racemic) | 18 | 7 | 16 | –
O=C([C@H](O)c1ccc(O)cc1)N1CC(CNc2ccc(F)cc2)C2(C1)CN(c1cc(F)cc(F)c1)C2 (mixture of isomers) | 6.8 | 7.9 | 4.4 | –
N#Cc1cc(CC(=O)N2CC(CNc3ccc(F)cc3)C3(C2)CN(c2cc(F)cc(F)c2)C3)ccc1O (racemic) | 27 | 31 | 70 | –
O=C(Cc1cc[n+]([O-])cc1)N1CC(CNc2ccc(F)cc2)C2(C1)CN(c1cc(F)cc(F)c1)C2 (racemic) | 150 | 150 | 150 | –
CC1(C)c2nc(-c3ccc(F)cc3)c(Nc3ccc(F)cc3)n2CCN1C(=O)CN [GANAPLACIDE] | – | – | – | clearance [4]: 37.8 mL/min/kg; CL [5]: 548 mL/min/kg; fAUC [6]: 65.4 µmol·min/L; bioavailability [7]: 74%; f(Cave) [8]: 45 nM
O=C(Cc1ncc(O)cn1)N1CC(CNc2ccc(F)cc2)C2(C1)CN(c1cc(F)cc(F)c1)C2 (racemic) | 64 | 68 | 67 | –
Nc1ccc(C[C@@H](N)C(=O)N2CC(CNc3ccc(F)cc3)C3(C2)CN(c2cc(F)cc(F)c2)C3)cc1 (mixture of isomers) | 150 | 150 | 150 | clearance [4]: 40.6 mL/min/kg; CL [5]: 2959 mL/min/kg; fAUC [6]: 2 µmol·min/L; bioavailability [7]: 8%; AUC(0-inf) [9]: 2.48 µM·h; Vd [10]: 20.7 L/kg; half-life [11]: 342 min; Cave [8]: 1 nM
O=C(Cc1ccnc(O)c1)N1CC(CNc2ccc(F)cc2)C2(C1)CN(c1cc(F)cc(F)c1)C2 (racemic) | 12 | 20 | 17 | –
O=C(Cc1ccc(O)cn1)N1CC(CNc2ccc(F)cc2)C2(C1)CN(c1cc(F)cc(F)c1)C2 (racemic) | 12 | 12 | 11 | –
O=C(Cc1ccc(C(F)F)cc1)N1CC(CNc2ccc(F)cc2)C2(C1)CN(c1ccc(F)cc1)C2 (racemic) | 7.6 | 7.6 | 6.6 | –
C[C@H](C(=O)N1CC(CNc2ccc(F)cc2)C2(C1)CN(c1cc(F)cc(F)c1)C2)c1ccc(O)cc1 (mixture of isomers) | 6 | 4 | 10 | –
O=C(Cc1ccc(O)c(Cl)c1)N1CC(CNc2ccc(F)cc2)C2(C1)CN(c1ccc(F)cc1)C2 (racemic) | 22 | 25 | 16 | –
O=C(CN1CCC(O)CC1)N1CC(CNc2ccc(F)cc2)C2(C1)CN(c1ccc(F)cc1)C2 (racemic) | 150 | 150 | 150 | –
N[C@@H](C(=O)N1CC(CNc2ccc(F)cc2)C2(C1)CN(c1cc(F)cc(F)c1)C2)c1ccc(O)cc1 (mixture of isomers) | 25 | 44 | 48 | –
O=C([C@@H](O)c1ccc(O)cc1)N1CC(CNc2ccc(F)cc2)C2(C1)CN(c1cc(F)cc(F)c1)C2 (mixture of isomers) | 9 | 6.7 | 11 | –
O=C(Cc1cc(F)c(O)c(F)c1)N1CC(CNc2ccc(F)cc2)C2(C1)CN(c1ccc(F)cc1)C2 (racemic) | 46 | 40 | 42 | –
